Data on 49 compounds can be found in patent publication US10308617B2, “Triazole benzamide derivatives and the compositions and methods of treatment regarding the same” (An2H Discovery Limited, priority 2016, dated 2019).

In one assay the target is Parkin (Homo sapiens, UniProt O60260). Briefly: Parkin pUB Auto-ubiquitinylation Assay (TR-FRET). The format is biochemical.
Parkin, sequence (O60260 whole entry, other chains not shown): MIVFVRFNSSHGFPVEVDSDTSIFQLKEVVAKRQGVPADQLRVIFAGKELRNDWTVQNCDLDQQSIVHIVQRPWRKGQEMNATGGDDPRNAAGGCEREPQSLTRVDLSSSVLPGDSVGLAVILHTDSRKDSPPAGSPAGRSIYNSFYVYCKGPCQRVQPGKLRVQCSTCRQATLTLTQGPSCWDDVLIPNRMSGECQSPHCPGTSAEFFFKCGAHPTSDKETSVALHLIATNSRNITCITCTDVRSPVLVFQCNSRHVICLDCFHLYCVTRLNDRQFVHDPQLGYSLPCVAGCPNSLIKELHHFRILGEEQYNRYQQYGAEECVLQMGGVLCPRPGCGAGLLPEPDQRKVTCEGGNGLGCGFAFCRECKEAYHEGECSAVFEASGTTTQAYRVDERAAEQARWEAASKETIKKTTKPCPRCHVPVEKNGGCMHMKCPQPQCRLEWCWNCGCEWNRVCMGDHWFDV
Details: not given
The text has this:
A Parkin pUB Auto-ubiquitinylation Assay is used to evaluate a compound's potency to activate Parkin's ability to Auto-ubiquitinylate itself.
The principle of this assay is that the E3 Ligase Parkin catalyzes the transfer of Ubiquitin to target proteins, but also has the ability to auto-ubiquitinylate itself. The phospho-Ubiquition (pUb) added to the assay alters the Parkin to a state where small molecule activators can enable the Parkin to auto-ubiquitinylate though the E1-E2 cascade reaction. The use of a Eu cryptate Ubiquition and anti 6His-d2 that binds to the His tagged Parkin will give a signal when the Eu cryptate Ubiquition is auto-ubiquitinylate onto the Parkin which can be monitored by TR-FRET.
Similar to the Activity-based probe assay in Example 2, screening for activating compounds can be distinguished from the controls as follows: • 100% activation signal=pUb activated Parkin+40 nM control activator in DMSO. • 0% activation signal=pUb activated Parkin+DMSO only. • Parkin activators can be identified by an increase of the 0% activation signal TR-FRET signal. Materials: • Assay Plate: White 384 well plate (Corning 3572) • Enzyme 1: E1 (Ubiquitin-activating enzyme/UBE1 Boston Biochem E-305) • Enzyme 2: E2 (UBcH7/Ube2L3 Boston Biochem E2-640) • Enzyme 3: Parkin-His tagged 203 μM (10.5 mg/ml) • pUb: Phospho-Ubiquitin (S65) (Boston Biochem U-102) • Eu Cryptate Reagent: Ubiquitin Eu (CisBio 61UBIKLA) • DMSO: DMSO (Sigma-34869-2.5L) • Reaction Buffer: 50 mM HEPES, 50 mM NaCl, 1 mM MgCl2, 0.005% Tween 20, 0.1% PF-127 (Fisher Scientific 50-310-494), pH 8.5 • Detection Buffer: 50 mM HEPES, 50 mM NaCl, 800 mM KF, 5 mM EDTA, 0.005% Tween 20, 0.1% PF-127, pH 8.5 • Detection Reagent Z: 13.4 nM Anti-6His-d2 in detection buffer • d2 Reagent: Anti-6His-d2 (CisBio 61HISDLA)
Enzyme Reaction (15 min pre-incubation with Parkin, pUb and activator only) • Parkin: 196 nM • pUb: 196 nM • DMSO: 1% DMSO • E1: 5 nM • E2: 50 nM • Ubiquitin Eu: 8.8 nM • Reaction time: 120 minutes • Temperature: 22° C. • Total volume: 10 μl reaction
Take 10 μl of Enzyme Reaction above and add 10 μl detection Reagent Z under the following conditions:
Assay Procedure: • 1) Load assay plate wells with 4.9 μl 400.0 nM Parkin, 400 nM pUb in reaction buffer by use of Eppendorf 12-channel pipette. • 2) Deliver 0.1 μl 100× activator candidates in DMSO by use of Echo 555 compound dispenser. Highest 100× concentration=100 μm and then twofold dilutions. Add each compound and control in duplicate wells. • 3) Spin 1000 rpm, 2 minutes, at room temp. • 4) Incubate plate for 15 minutes at room temp. • 5) Add 5 μl 10 nM E1, 100 nM E2, 17.6 nM Ubiquitin Eu and 2 mM ATP in Reaction Buffer by use of Eppendorf 12-channel pipette. • 6) Spin 1000 rpm, 2 minutes, at room temp. • 7) Incubate plate for 120 minutes at room temp. • 8) Add 10 μl 13.4 nM anti his d2 in detection buffer by use of Eppendorf 12-channel pipette. • 9) Spin 1000 rpm, 2 minutes, at room temp. • 10) Incubate plate for 120 minutes at room temp. • 11) Read plates on Perkin Elmer Envision instrument with the following parameters: • LANCE dual laser protocol loaded into the Envision® software • Top Mirror: LANCE/DELFIA Duel/Bias (Bar code 446) • Emission Filter: APC 665 EM (Bar code 205) • 2nd Emission Filter: Europium 615 EM (Bar code 203) • Read 655 nm (channel 1) and 615 nm (channel 2) wavelengths on Envision®
Data Analysis: The Data can be read in CSV files. There are two tables in those CSV files, which are the values of 655 nm (channel 1) and 615 nm (channel 2) wavelengths respectively. The data is converted to an HTRF Ratio=(Channel 1/Channel 2)*10,000
The average of all the 0 uM controls (DMSO only)=BKGD (Background—0% activation). Subtract BKGD from each HTRF Ratio value=HTRF-BKGD. The average of all the […] control activator in DMSO controls=Max (100% activation). The following equation is then used to calculate % Activation for each well/candidate as follows: % Activation=(HTRF-BKGD/Max)*100. […]
For the compound `O=C(Nc1nc(NC(=O)c2ccccc2)n(-c2ccccc2)n1)c1ccccc1` [Compound A, N,N′-(1-phenyl-1H-1,2,4-triazole-3,5-diyl)dibenzamide], the “Parkin activity in an auto-ubiquitination assay” value is listed as “increases”.

The same assay, now with this note: Parkin activation, pUb activated Parkin; read-out: Auto-ubiq EC50 (μM) [Example 3].
Usually EC50 stands for the concentration at which the effect is half-maximal. Consider `O=C(Nc1nc(NC(=O)c2cccc([N+](=O)[O-])c2)n(-c2ccccc2)n1)c1ccccc1` [Compound V1], for which the half-maximal effective concentration (EC50) is over 40 µM. Take `CC(=O)Nc1nc(NC(C)=O)n(-c2ccccc2)n1` [Compound B]: the EC50 is over 40 µM. For `O=C(Nc1nc(NC(=O)c2cccs2)nn1-c1ccccc1)c1ccccc1` [Compound G2], the EC50 is over 40 µM. As to `O=C(Nc1nc(NC(=O)c2ccco2)n(-c2ccccc2)n1)c1ccccc1` [Compound W1], the EC50 is over 40 µM. `C=CC(=O)Nc1nc(NC(=O)c2ccccc2)nn1-c1ccccc1` [Compound L2]: the EC50 is over 40 µM. For the compound `CCN(CC)c1cc(Nc2nc(NC(=O)c3ccccc3)nn2-c2ccccc2)ncn1` [Compound F1], the EC50 is over 40 µM.

Regarding `O=C(Nc1nc(NC(=O)c2nc3ccccc3s2)n(-c2ccccc2)n1)c1ccccc1` [Compound M2], the EC50 is over 40 µM.

Consider `CCN(CC)c1nc(Nc2nc(NC(=O)c3ccccc3)nn2-c2ccccc2)nc2ccccc12` [X], for which the EC50 is over 40 µM.

Take `O=C(/C=C/c1ccccc1)Nc1nc(NC(=O)c2ccccc2)nn1-c1ccccn1` [Compound U1]: the half-maximal effective concentration (EC50) is over 40 µM. In the case of `O=C(Nc1nc(NC(=O)c2ccccc2)n(-c2ccc(OC(F)(F)F)cc2)n1)c1ccccc1` [Compound Z1], the concentration for a half-maximal effect (EC50) is over 40 µM.

As to `O=C(Nc1nc(-c2ccccn2)nn1-c1ccccc1)c1ccccc1` [Compound Y1, N-(1-phenyl-3-(pyridin-2-yl)-1H-1,2,4-triazol-5-yl)benzamide], the EC50 is over 40 µM. Still for that read-out and setting: with `O=C(Nc1nc(NC(=O)c2ccccc2)n(-c2cccc3ncccc23)n1)c1ccccc1` [Compound P2] the figure was over 40 µM.

For the compound `C/C=C/C(=O)Nc1nc(Nc2ncnc3ccccc23)n(-c2ccccc2)n1` [Compound L1], the EC50 is over 40 µM. Take `Nc1nc(Nc2nc(NC(=O)c3ccccc3)nn2-c2ccccc2)nc2ccccc12` [Compound N1]: the EC50 is over 40 µM.

As for `O=C(Nc1nc(NC(=O)c2ccccc2)n(-c2ccc(-c3ccccc3)cc2)n1)c1ccccc1` [Compound X1], the EC50 was over 40 µM. Take `O=C(Nc1nc(NC(=O)c2ccccc2)n(-c2ccc(I)cc2)n1)c1ccccc1` [Compound E, N-[5-benzamido-1-(4-iodophenyl)-1,2,4-triazol-3-yl]benzamide]: the 50% effective concentration (EC50) is over 40 µM.

On to `O=C(Nc1nc(Nc2ccncn2)n(-c2ccccc2)n1)c1ccccc1` [Compound H1], for which the EC50 was over 40 µM. Regarding `O=C(Nc1nc(NC(=O)c2ccccc2)n(-c2ccccc2)n1)c1ccccc1` [Compound A, N,N′-(1-phenyl-1H-1,2,4-triazole-3,5-diyl)dibenzamide], the EC50 is 2.3 µM. For `CN(C(=O)c1ccccc1)c1nc(NC(=O)c2ccccc2)nn1-c1ccccc1` [V], the EC50 is over 40 µM. The same measure, in the same setting: with `CN(C(=O)c1ccccc1)c1nc(NC(=O)c2ccccc2)n(-c2ccccc2)n1` [G] the figure was over 40 µM; with `O=C(Nc1nc(NC(=O)c2ccc(I)cc2)n(-c2ccccc2)n1)c1ccc(I)cc1` [D], over 40 µM. As to `O=C(Nc1nc(-c2ccccn2)nn1-c1ccccc1)c1ccccc1` [T], the EC50 was over 40 µM. On the same count and under the same terms, with `O=C(Nc1nc(NC(=O)c2ccccc2)n(-c2ccc3ccccc3n2)n1)c1ccccc1` [Compound D2] the figure was over 40 µM; with `O=C(Nc1nc(Nc2cc(N3CCCC3)ncn2)n(-c2ccccc2)n1)c1ccccc1` [Compound G1], over 40 µM. `CCN(CC)c1nc(Nc2nc(NC(=O)c3ccccc3)nn2-c2ccccc2)c2ccccc2n1` [W]: the EC50 was over 40 µM. Regarding `Cc1ccccc1C(=O)Nc1nc(NC(=O)c2ccccc2)n(-c2ccccc2)n1` [Compound H], the EC50 is over 40 µM. Take `Cc1ccccc1C(=O)Nc1nc(NC(=O)c2cccs2)nn1-c1ccccc1` [Compound K2]: the concentration for a half-maximal effect (EC50) is over 40 µM. `O=C(Nc1nc(Nc2nc(N3CCCC3)c3ccccc3n2)n(-c2ccccc2)n1)c1ccccc1` [Compound B1]: the EC50 was over 40 µM. For `Cc1ccccc1-n1nc(NC(=O)c2ccccc2)nc1NC(=O)c1ccccc1` [M], the EC50 was over 40 µM. Turning to `O=C(Nc1nc(NC(=O)c2ccccc2)n(-c2ccc3c(c2)OCCO3)n1)c1ccccc1` [Compound E2], the EC50 is over 40 µM. With `O=C(Nc1nc(Nc2cc(N3CCCC3)nc3ccccc23)n(-c2ccccc2)n1)c1ccccc1` [Compound A1], the EC50 was over 40 µM. Turning to `O=C(Nc1nc(Nc2nc(O)nc3ccccc23)n(-c2ccccc2)n1)c1ccccc1` [Compound E1], the EC50 was over 40 µM. On the same count and under the same terms, with `Cc1ccccc1C(=O)Nc1nc(-c2cccnc2)nn1-c1ccccc1` [Compound T2] the figure was over 40 µM; with `O=C(Nc1nc(Nc2ncnc3ccccc23)n(-c2ccccc2)n1)c1cccs1` [Compound C1], over 100 µM; with `Cc1ccccc1C(=O)Nc1nc(NC(=O)c2ccccc2)nn1-c1ccccc1` [Compound K, N-(5-benzamido-2-phenyl-1,2,4-triazol-3-yl)-2-methyl-benzamide], over 40 µM. With `O=C(Nc1nc(Nc2nccc3ccccc23)n(-c2ccccc2)n1)c1ccccc1` [U], the EC50 is over 40 µM. On to `c1ccc(-n2nc(-c3ccccn3)nc2Nc2ncnc3ccccc23)cc1` [Compound U2], for which the 50% effective concentration (EC50) was over 40 µM.

Take `CC(C)C(=O)Nc1nc(Nc2ncnc3ccccc23)n(-c2ccccc2)n1` [Compound K1]: the EC50 is over 40 µM.

Turning to `Cc1ccccc1C(=O)Nc1nc(NC(=O)c2ccccc2C)n(C(C)C)n1` [Compound W2], the EC50 was over 40 µM. With `C=C(C)C(=O)Nc1nc(Nc2ncnc3ccccc23)n(-c2ccccc2)n1` [Compound M1], the EC50 was over 40 µM. Consider `O=C(Nc1nc(Nc2ncnc3ccccc23)n(-c2ccccc2)n1)c1ccco1` [Z], for which the EC50 was over 40 µM. `O=C(Nc1nc(Nc2nc(O)c3ccccc3n2)n(-c2ccccc2)n1)c1ccccc1` [Compound O1]: the 50% effective concentration (EC50) was over 40 µM.

In the case of `O=C(Nc1nc(NC(=O)c2ccccc2)n(-c2cccc3cccnc23)n1)c1ccccc1` [Compound O2], the EC50 was over 40 µM.

On to `COc1ccc(-n2nc(NC(=O)c3ccccc3)nc2NC(=O)c2ccccc2)cc1` [Compound F2], for which the EC50 was over 40 µM.

`Cc1ccccc1C(=O)Nc1nc(C2CCOCC2)nn1-c1ccccc1` [Compound V2]: the EC50 is over 40 µM. On to `Cc1ccccc1C(=O)Nc1nc(Nc2ncnc3ccccc23)n(-c2ccccc2)n1` [Compound R2], for which the EC50 is over 40 µM. On to `CN1CCC(C(=O)Nc2nc(Nc3ncnc4ccccc34)n(-c3ccccc3)n2)CC1` [Compound D1], for which the EC50 was over 40 µM. `O=C(Nc1nc(NC(=O)c2ccc3ccccc3n2)n(-c2ccccc2)n1)c1ccccc1` [Compound B2]: the concentration giving a half-maximal response (EC50) is over 40 µM. Same read-out and setting: with `Cc1ccccc1C(=O)Nc1nc(NC(=O)c2ccccc2C)n(-c2ccccc2)n1` [Compound F, 2-methyl-N-[5-[(2-methylbenzoyl)amino]-1-phenyl-1,2,4-triazol-3-yl]benzamide] the figure was over 40 µM.
